Data taken from ChEMBL document CHEMBL5055656, “Synthesis of novel indole-thiazolidinone hybrid structures as promising scaffold with anticancer potential” (Bioorg Med Chem, 2021).
Activity calls are given as the source filed them. The rule behind the calls is not given here.

Columns and labels:
[1] = Selectivity index, ratio of GI50 for mouse BALA/3T3 cells to GI50 for human HeLa cells; type: toxicity; settings: BALA/3T3 cells versus HeLa cells, read-out: RatioGI50
[2] = Selectivity index, ratio of GI50 for human HaCaT mouse BALA/3T3 cells to GI50 for human A549 cells; type: toxicity; settings: read-out: RatioGI50
BALB/3T3 [3] = assay: (§1) Cytotoxicity against mouse BALB/3T3 cells assessed as cell growth inhibition measured after 48 hrs by coomassie brilliant blue staining based total cellular protein assay; settings: balb/3t3, 48 h
[4] = as §1; settings: BALB/3T3 cells
[5] = Selectivity index, ratio of GI50 for mouse BALA/3T3 cells to GI50 for human HepG2 cells measured after 48 hrs by neutral red uptake assay; type: toxicity; settings: BALA/3T3 cells versus HepG2 cells, read-out: Selectivity Index
BALB/3T3 [6] = assay: (§2) Cytotoxicity against mouse BALB/3T3 cells assessed as cell growth inhibition measured after 72 hrs by coomassie brilliant blue staining based total cellular protein assay; settings: balb/3t3, 72 h
[7] = as §2; settings: BALB/3T3 cells
HepG2 [8] = assay: Cytotoxicity against human HepG2 cells assessed as cell growth inhibition measured after 72 hrs by LDH assay; type: functional
BALB/3T3 [9] = assay: (§3) Cytotoxicity against mouse BALB/3T3 cells assessed as cell growth inhibition measured after 24 hrs by coomassie brilliant blue staining based total cellular protein assay; settings: balb/3t3, 24 h
[10] = as §3; settings: BALB/3T3 cells
[11] = Selectivity index, ratio of GI50 for human HaCaT cells to GI50 for human WM793 cells
HCT-116 [12] = assay: Induction of apoptosis in human HCT-116 cells assessed as activation of cleaved PARP1 expression at 0.7 uM incubated for 24 hrs by Western blot analysis; type: functional, cell-based
HepG2 [13] = assay: Cytotoxicity against human HepG2 cells assessed as cell growth inhibition measured after 72 hrs by coomassie brilliant blue staining based total cellular protein assay; type: functional
BALB/3T3 [14] = assay: (§4) Cytotoxicity against mouse BALB/3T3 cells assessed as cell growth inhibition measured after 24 hrs by neutral red uptake assay; type: cell-based; settings: balb/3t3, 24 h
[15] = as §4; type: cell-based; settings: BALB/3T3 cells
[16] = Selectivity index, ratio of GI50 for human HaCaT cells to GI50 for human MCF7 cells; type: toxicity; settings: HaCaT cells versus MCF7 cells, read-out: RatioGI50
BALB/3T3 [17] = assay: (§5) Cytotoxicity against mouse BALB/3T3 cells assessed as cell growth inhibition measured after 24 hrs by LDH assay; type: cell-based; settings: balb/3t3, 24 h
[18] = as §5; type: cell-based; settings: BALB/3T3 cells
MCF7 [19] = assay: Induction of apoptosis in human MCF7 cells assessed as activation of cleaved PARP1 expression at 0.7 uM incubated for 24 hrs by Western blot analysis; type: functional, cell-based
[20] = Cytotoxicity against mouse BALB/3T3 cells assessed as cell growth inhibition measured after 72 hrs by MTT assay; type: cell-based
MCF7 [21] = assay: Induction of DNA damage in human MCF7 cells assessed as increase in tail length incubated at 0.7 uM measured after 24 hrs by alkaline Comet assay; type: functional, cell-based
HCT-116 [22] = assay: Induction of cell cycle arrest in human HCT-116 cells assessed as decrease in phospho-Rb expression at 45 uM measured after 24 hrs by Western blot analysis; type: functional, cell-based
HepG2 [23] = assay: Cytotoxicity against human HepG2 cells assessed as cell growth inhibition measured after 24 hrs by LDH assay; type: functional
HepG2 [24] = assay: Cytotoxicity against human HepG2 cells assessed as cell growth inhibition measured after 24 hrs by neutral red uptake assay; type: functional
MCF7 [25] = assay: Induction of apoptosis in human MCF7 cells assessed as decrease in Cdk2 expression at 45 uM after 24 hrs by Western blot analysis; type: functional, cell-based
[26] = Selectivity index, ratio of GI50 for mouse BALA/3T3 cells to GI50 for human HepG2 cells measured after 48 hrs by LDH assay; type: toxicity; settings: BALA/3T3 cells versus HepG2 cells, read-out: Selectivity Index
BALB/3T3 [27] = assay: (§6) Cytotoxicity against mouse BALB/3T3 cells assessed as cell growth inhibition measured after 72 hrs by neutral red uptake assay; type: cell-based; settings: balb/3t3, 72 h
[28] = as §6; type: cell-based; settings: BALB/3T3 cells
BALB/3T3 [29] = assay: (§7) Cytotoxicity against mouse BALB/3T3 cells assessed as cell growth inhibition measured after 24 hrs by MTT assay; type: cell-based; settings: balb/3t3, 24 h
[30] = as §7; type: cell-based; settings: BALB/3T3 cells
Salmon testes DNA = assay: Displacement of methyl green from salmon sperm DNA at 1 uM measured after 2 hrs by fluorescence plate reader method relative to control; type: cell-based; settings: Salmo salar, Spermatozoa
MCF7 [31] = assay: Cytotoxicity against human MCF7 cells assessed as cell growth inhibition measured after 72 hrs by MTT assay; type: functional
HepG2 [32] = assay: Cytotoxicity against human HepG2 cells assessed as cell growth inhibition measured after 24 hrs by MTT assay; type: functional
THP-1 = assay: Cytotoxicity against human THP-1 cells assessed as cell growth inhibition measured after 72 hrs by MTT assay; type: functional
HCT-116 [33] = assay: Cytotoxicity against human HCT-116 cells assessed as cell growth inhibition measured after 72 hrs by MTT assay; type: functional
[34] = Selectivity index, ratio of GI50 for human HaCaT cells to GI50 for human HeLa cells; type: toxicity; settings: HaCaT cells versus HeLa cells, read-out: RatioGI50
[35] = Selectivity index, ratio of GI50 for human HaCaT cells to GI50 for human A549 cells; type: toxicity; settings: HaCaT cells versus A549 cells, read-out: RatioGI50
HepG2 [36] = assay: Cytotoxicity against human HepG2 cells assessed as cell growth inhibition measured after 24 hrs by coomassie brilliant blue staining based total cellular protein assay; type: functional
HCT-116 [37] = assay: Induction of DNA damage in human HCT-116 cells assessed as increase in tail length at 0.7 uM incubated measured after 24 hrs by alkaline Comet assay; type: functional, cell-based
[38] = Selectivity index, ratio of GI50 for mouse BALA/3T3 cells to GI50 for human THP-1 cells
[39] = Selectivity index, ratio of GI50 for mouse BALA/3T3 cells to GI50 for human HepG2 cells measured after 72 hrs by neutral red uptake assay; type: toxicity; settings: BALA/3T3 cells versus HepG2 cells, read-out: Selectivity Index
HepG2 [40] = assay: Cytotoxicity against human HepG2 cells assessed as cell growth inhibition measured after 72 hrs by MTT assay; type: functional
HCT-116 [41] = assay: Induction of apoptosis in human HCT-116 cells assessed as decrease in Cdk2 expression at 45 uM after 24 hrs by Western blot analysis; type: functional, cell-based
[42] = Selectivity index, ratio of GI50 for mouse BALA/3T3 cells to GI50 for human HepG2 cells measured after 72 hrs by coomassie brilliant blue staining based total cellular protein assay; type: toxicity; settings: BALA/3T3 cells versus HepG2 cells, read-out: Selectivity Index
HepG2 [43] = assay: Induction of DNA damage in human HepG2 cells assessed as increase in tail length incubated at 0.7 uM measured after 24 hrs by alkaline Comet assay; type: functional

Work on `COC(=O)c1[nH]c2ccc(F)cc2c1/C=C1\SC(=S)NC1=O` yielded a selectivity ratio [1] of 1.41, a selectivity ratio [2] of 7.17 and a GI20 (BALB/3T3 [3]) of 3.7 µM. For the same molecule, the GI80 (BALB/3T3 [3]) was > 100 µM, the GI50 at 48 h [4] was > 100 µM and the selectivity ratio at 48 h [5] was 4.1. For the same molecule, the GI20 (BALB/3T3 [6]) was 1.6 µM, the GI80 (BALB/3T3 [6]) was > 100 µM and the GI50 at 72 h [7] was 48.3 µM. The GI20 (HepG2 [8]) was <0.01 µM, the GI80 (HepG2 [8]) was 3.6 µM and the GI50 (HepG2 [8]; Homo sapiens, HepG2) was 0.04 µM. The GI20 (BALB/3T3 [9]) was 6.1 µM, the GI80 (BALB/3T3 [9]) was > 100 µM and the GI50 at 24 h [10] was > 100 µM. For the same molecule, the RatioGI50 [11] was 0.87, the Activity (HCT-116 [12]) was “Active” and the GI20 (HepG2 [13]) was 0.08 µM. For the same molecule, the GI80 (HepG2 [13]) was >100 µM, the GI50 (HepG2 [13]; Homo sapiens, HepG2) was 35.6 µM and the GI20 (BALB/3T3 [14]) was 5.4 µM. The GI80 (BALB/3T3 [14]) was > 100 µM, the GI50 at 24 h [15] was > 100 µM and the selectivity ratio [16] was 99.4. The GI20 (BALB/3T3 [17]) was > 100 µM, the GI80 (BALB/3T3 [17]) was > 100 µM and the GI50 at 24 h [18] was > 100 µM. The Activity (MCF7 [19]) was “Active”, the GI50 at 72 h [20] was 40.8 µM and the Activity (MCF7 [21]) was “Active”. The Activity (HCT-116 [22]) was “Active”, the GI20 (HepG2 [23]) was <0.01 µM and the GI80 (HepG2 [23]) was 20.3 µM. It also gave a GI50 (HepG2 [23]; Homo sapiens, HepG2) of 0.31 µM, a GI20 (HepG2 [24]) of 2.4 µM and a GI80 (HepG2 [24]) of 80.7 µM. The GI50 (HepG2 [24]; Homo sapiens, HepG2) was 40.1 µM, the Activity (MCF7 [25]) was “Active” and the selectivity ratio at 48 h [26] was 1500. The GI20 (BALB/3T3 [27]) was 0.7 µM, the GI80 (BALB/3T3 [27]) was > 100 µM and the GI50 at 72 h [28] was 51.5 µM. For the same molecule, the GI20 (BALB/3T3 [29]) was 7.9 µM, the GI80 (BALB/3T3 [29]) was > 100 µM and the GI50 at 24 h [30] was 54.3 µM. For the same molecule, the Activity (Salmon testes DNA) was 1.7%, the GI50 (MCF7 [31]) was 0.7 µM and the GI20 (HepG2 [32]) was 3 µM. For the same molecule, the GI80 (HepG2 [32]) was 95.6 µM, the GI50 (HepG2 [32]; Homo sapiens, HepG2) was 44.7 µM and the GI50 (THP-1) was 62.4 µM. The GI50 (HCT-116 [33]) was 0.8 µM, the selectivity ratio [34] was 1.41 and the selectivity ratio [35] was 7.17. The GI20 (HepG2 [36]) was 3.7 µM, the GI80 (HepG2 [36]) was >100 µM and the GI50 (HepG2 [36]; Homo sapiens, HepG2) was > 100 µM. For the same molecule, the Activity (HCT-116 [37]) was “Active”, the RatioGI50 [38] was 1.11 and the selectivity ratio at 72 h [39] was 8.9. For the same molecule, the GI50 (HepG2 [40]) was 12.1 µM, the Activity (HCT-116 [41]) was “Active” and the selectivity ratio at 72 h [42] was 3. For the same molecule, the Activity (HepG2 [43]) was 26.2%.
